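Where inhibition never reached the appropriate level, the endpoint shown equals the highest concentration tested. Otherwise, values were interpolated linearly from a five-concentration, 48-hour dose response in 96-well plates. TGI denotes the concentration required for complete inhibition of growth.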
What was measured:
Experiment in all cases: NCI tumour cell line growth inhibition, 48 h
U251 CNS = tested on: U251 CNS
SF-295 CNS = tested on: SF-295 CNS
SK-MEL-2 melanoma = tested on: SK-MEL-2 melanoma
MALME-3M melanoma = tested on: MALME-3M melanoma
KM12 colon = tested on: KM12 colon
HOP-62 NSCLC = tested on: HOP-62 NSCLC
M14 melanoma = tested on: M14 melanoma
NCI-H23 lung = tested on: NCI-H23 lung
HCC-2998 colon = tested on: HCC-2998 colon
UACC-257 melanoma = tested on: UACC-257 melanoma
A549 NSCLC = tested on: A549 NSCLC
SR leukemia = tested on: SR leukemia
RPMI-8226 leukemia = tested on: RPMI-8226 leukemia
HCT-15 colon = tested on: HCT-15 colon
DU-145 prostate = tested on: DU-145 prostate
NCI-H226 lung = tested on: NCI-H226 lung
MDA-MB-435 = tested on: MDA-MB-435
MOLT-4 leukemia = tested on: MOLT-4 leukemia
PC-3 prostate = tested on: PC-3 prostate
NCI-H460 lung = tested on: NCI-H460 lung
CCRF-CEM leukemia = tested on: CCRF-CEM leukemia
BT-549 breast = tested on: BT-549 breast
SF-268 CNS = tested on: SF-268 CNS
HT29 colon = tested on: HT29 colon
CAKI-1 renal = tested on: CAKI-1 renal
SW-620 colon = tested on: SW-620 colon
TK-10 renal = tested on: TK-10 renal
NCI-H522 lung = tested on: NCI-H522 lung
OVCAR-4 ovarian = tested on: OVCAR-4 ovarian
MCF7 breast = tested on: MCF7 breast
HCT-116 colon = tested on: HCT-116 colon
RXF 393 renal = tested on: RXF 393 renal
OVCAR-5 ovarian = tested on: OVCAR-5 ovarian
NCI/ADR-RES ovarian = tested on: NCI/ADR-RES ovarian
UO-31 renal = tested on: UO-31 renal
OVCAR-3 ovarian = tested on: OVCAR-3 ovarian
EKVX NSCLC = tested on: EKVX NSCLC
T-47D breast = tested on: T-47D breast
786-0 renal = tested on: 786-0 renal
ACHN renal = tested on: ACHN renal
OVCAR-8 ovarian = tested on: OVCAR-8 ovarian
COLO 205 colon = tested on: COLO 205 colon
SN12C renal = tested on: SN12C renal
MDA-N = tested on: MDA-N
HL-60(TB) leukemia = tested on: HL-60(TB) leukemia
SNB-19 CNS = tested on: SNB-19 CNS
K-562 leukemia = tested on: K-562 leukemia
SK-MEL-5 melanoma = tested on: SK-MEL-5 melanoma
HOP-92 NSCLC = tested on: HOP-92 NSCLC
IGROV1 ovarian = tested on: IGROV1 ovarian
SK-MEL-28 melanoma = tested on: SK-MEL-28 melanoma
A498 renal = tested on: A498 renal
SK-OV-3 ovarian = tested on: SK-OV-3 ovarian
MDA-MB-231 breast = tested on: MDA-MB-231 breast
LOX IMVI melanoma = tested on: LOX IMVI melanoma
SNB-75 CNS = tested on: SNB-75 CNS
UACC-62 melanoma = tested on: UACC-62 melanoma
SF-539 CNS = tested on: SF-539 CNS
HS 578T breast = tested on: HS 578T breast

`NC(=S)N/N=C1\CCCCc2ccccc21` showed a TGI (U251 CNS) greater than 10 µM, a TGI (SF-295 CNS) greater than 10 µM and a TGI (SK-MEL-2 melanoma) greater than 10 µM. It also gave a TGI (MALME-3M melanoma) greater than 10 µM, a TGI (KM12 colon) greater than 10 µM and a TGI (HOP-62 NSCLC) greater than 10 µM. For the same compound, the TGI (M14 melanoma) was greater than 10 µM, the TGI (NCI-H23 lung) was greater than 10 µM and the TGI (HCC-2998 colon) was greater than 10 µM. It also gave a TGI (UACC-257 melanoma) greater than 10 µM, a TGI (A549 NSCLC) greater than 10 µM and a TGI (SR leukemia) greater than 10 µM. For the same compound, the TGI (RPMI-8226 leukemia) was greater than 10 µM, the TGI (HCT-15 colon) was greater than 10 µM and the TGI (DU-145 prostate) was greater than 10 µM. It also gave a TGI (NCI-H226 lung) greater than 10 µM, a TGI (MDA-MB-435) greater than 10 µM and a TGI (MOLT-4 leukemia) greater than 10 µM. The TGI (PC-3 prostate) was greater than 10 µM, the TGI (NCI-H460 lung) was greater than 10 µM and the TGI (CCRF-CEM leukemia) was greater than 10 µM. It also gave a TGI (BT-549 breast) greater than 10 µM, a TGI (SF-268 CNS) greater than 10 µM and a TGI (HT29 colon) greater than 10 µM. For the same compound, the TGI (CAKI-1 renal) was greater than 10 µM, the TGI (SW-620 colon) was greater than 10 µM and the TGI (TK-10 renal) was greater than 10 µM. The TGI (NCI-H522 lung) was greater than 10 µM, the TGI (OVCAR-4 ovarian) was greater than 10 µM and the TGI (MCF7 breast) was greater than 10 µM. For the same compound, the TGI (HCT-116 colon) was greater than 10 µM, the TGI (RXF 393 renal) was greater than 10 µM and the TGI (OVCAR-5 ovarian) was greater than 10 µM. For the same compound, the TGI (NCI/ADR-RES ovarian) was greater than 10 µM, the TGI (UO-31 renal) was greater than 10 µM and the TGI (OVCAR-3 ovarian) was greater than 10 µM. The TGI (EKVX NSCLC) was greater than 10 µM, the TGI (T-47D breast) was greater than 10 µM and the TGI (786-0 renal) was greater than 10 µM. For the same compound, the TGI (ACHN renal) was greater than 10 µM, the TGI (OVCAR-8 ovarian) was greater than 10 µM and the TGI (COLO 205 colon) was greater than 10 µM. It also gave a TGI (SN12C renal) greater than 10 µM, a TGI (MDA-N) greater than 10 µM and a TGI (HL-60(TB) leukemia) greater than 10 µM. For the same compound, the TGI (SNB-19 CNS) was greater than 10 µM and the TGI (K-562 leukemia) was greater than 10 µM.
Work on `O=C(CSc1nnc(SCC(=O)NN=C2CCCCC2)s1)NN=C1CCCCC1` yielded a TGI (U251 CNS) greater than 100 µM, a TGI (SF-295 CNS) greater than 100 µM and a TGI (SK-MEL-5 melanoma) greater than 100 µM. The TGI (MALME-3M melanoma) was greater than 100 µM, the TGI (KM12 colon) was greater than 100 µM and the TGI (HOP-62 NSCLC) was greater than 100 µM. For the same compound, the TGI (HOP-92 NSCLC) was greater than 100 µM, the TGI (M14 melanoma) was greater than 100 µM and the TGI (NCI-H23 lung) was greater than 100 µM. For the same compound, the TGI (HCC-2998 colon) was greater than 100 µM, the TGI (UACC-257 melanoma) was greater than 100 µM and the TGI (A549 NSCLC) was greater than 100 µM. The TGI (IGROV1 ovarian) was greater than 100 µM, the TGI (SR leukemia) was greater than 100 µM and the TGI (RPMI-8226 leukemia) was greater than 100 µM. The TGI (HCT-15 colon) was greater than 100 µM, the TGI (SK-MEL-28 melanoma) was greater than 100 µM and the TGI (DU-145 prostate) was greater than 100 µM. The TGI (NCI-H226 lung) was greater than 100 µM, the TGI (MDA-MB-435) was greater than 100 µM and the TGI (MOLT-4 leukemia) was greater than 100 µM. It also gave a TGI (A498 renal) greater than 100 µM, a TGI (PC-3 prostate) greater than 100 µM and a TGI (NCI-H460 lung) greater than 100 µM. The TGI (CCRF-CEM leukemia) was greater than 100 µM, the TGI (BT-549 breast) was greater than 100 µM and the TGI (SF-268 CNS) was greater than 100 µM. It also gave a TGI (HT29 colon) greater than 100 µM, a TGI (CAKI-1 renal) greater than 100 µM and a TGI (SK-OV-3 ovarian) greater than 100 µM. The TGI (MDA-MB-231 breast) was greater than 100 µM, the TGI (LOX IMVI melanoma) was greater than 100 µM and the TGI (SW-620 colon) was greater than 100 µM. The TGI (TK-10 renal) was greater than 100 µM, the TGI (NCI-H522 lung) was greater than 100 µM and the TGI (OVCAR-4 ovarian) was greater than 100 µM. It also gave a TGI (MCF7 breast) greater than 100 µM, a TGI (HCT-116 colon) greater than 100 µM and a TGI (RXF 393 renal) greater than 100 µM. For the same compound, the TGI (OVCAR-5 ovarian) was greater than 100 µM, the TGI (NCI/ADR-RES ovarian) was greater than 100 µM and the TGI (UO-31 renal) was greater than 100 µM. It also gave a TGI (OVCAR-3 ovarian) greater than 100 µM, a TGI (EKVX NSCLC) greater than 100 µM and a TGI (T-47D breast) greater than 100 µM. It also gave a TGI (786-0 renal) greater than 100 µM, a TGI (ACHN renal) greater than 100 µM and a TGI (OVCAR-8 ovarian) greater than 100 µM. The TGI (COLO 205 colon) was greater than 100 µM, the TGI (SN12C renal) was greater than 100 µM and the TGI (MDA-N) was greater than 100 µM. For the same compound, the TGI (SNB-75 CNS) was greater than 100 µM, the TGI (UACC-62 melanoma) was greater than 100 µM and the TGI (SNB-19 CNS) was greater than 100 µM. The TGI (K-562 leukemia) was greater than 100 µM and the TGI (SF-539 CNS) was greater than 100 µM.
`OC(c1ccoc1)c1cc2ccccc2s1` (centres undefined) showed a TGI (U251 CNS) greater than 10 µM, a TGI (SF-295 CNS) greater than 10 µM and a TGI (SK-MEL-5 melanoma) greater than 10 µM. For the same compound, the TGI (SK-MEL-2 melanoma) was greater than 10 µM, the TGI (KM12 colon) was greater than 10 µM and the TGI (HOP-62 NSCLC) was greater than 10 µM. The TGI (HOP-92 NSCLC) was greater than 10 µM, the TGI (M14 melanoma) was greater than 10 µM and the TGI (NCI-H23 lung) was greater than 10 µM. It also gave a TGI (HCC-2998 colon) greater than 10 µM, a TGI (UACC-257 melanoma) greater than 10 µM and a TGI (A549 NSCLC) greater than 10 µM. The TGI (IGROV1 ovarian) was greater than 10 µM, the TGI (SR leukemia) was greater than 10 µM and the TGI (RPMI-8226 leukemia) was greater than 10 µM. The TGI (HS 578T breast) was greater than 10 µM, the TGI (HCT-15 colon) was greater than 10 µM and the TGI (SK-MEL-28 melanoma) was greater than 10 µM. For the same compound, the TGI (DU-145 prostate) was greater than 10 µM, the TGI (NCI-H226 lung) was greater than 10 µM and the TGI (MDA-MB-435) was greater than 10 µM. For the same compound, the TGI (MOLT-4 leukemia) was greater than 10 µM, the TGI (PC-3 prostate) was greater than 10 µM and the TGI (NCI-H460 lung) was greater than 10 µM. It also gave a TGI (CCRF-CEM leukemia) greater than 10 µM, a TGI (SF-268 CNS) greater than 10 µM and a TGI (HT29 colon) greater than 10 µM. It also gave a TGI (CAKI-1 renal) greater than 10 µM, a TGI (SK-OV-3 ovarian) greater than 10 µM and a TGI (MDA-MB-231 breast) greater than 10 µM. The TGI (LOX IMVI melanoma) was greater than 10 µM, the TGI (SW-620 colon) was greater than 10 µM and the TGI (TK-10 renal) was greater than 10 µM. For the same compound, the TGI (NCI-H522 lung) was greater than 10 µM, the TGI (OVCAR-4 ovarian) was greater than 10 µM and the TGI (MCF7 breast) was greater than 10 µM. It also gave a TGI (HCT-116 colon) greater than 10 µM, a TGI (RXF 393 renal) greater than 10 µM and a TGI (OVCAR-5 ovarian) greater than 10 µM. The TGI (NCI/ADR-RES ovarian) was greater than 10 µM, the TGI (UO-31 renal) was greater than 10 µM and the TGI (OVCAR-3 ovarian) was greater than 10 µM. For the same compound, the TGI (EKVX NSCLC) was greater than 10 µM, the TGI (T-47D breast) was greater than 10 µM and the TGI (786-0 renal) was greater than 10 µM. For the same compound, the TGI (ACHN renal) was greater than 10 µM, the TGI (OVCAR-8 ovarian) was greater than 10 µM and the TGI (COLO 205 colon) was greater than 10 µM. The TGI (SN12C renal) was greater than 10 µM, the TGI (MDA-N) was greater than 10 µM and the TGI (SNB-75 CNS) was greater than 10 µM. The TGI (UACC-62 melanoma) was greater than 10 µM, the TGI (HL-60(TB) leukemia) was greater than 10 µM and the TGI (SNB-19 CNS) was greater than 10 µM. The TGI (K-562 leukemia) was greater than 10 µM and the TGI (SF-539 CNS) was greater than 10 µM.

Source: PubChem BioAssay (NCI)
